Residues, ends and D or L forms follow the SMILES beside them.
Columns and labels:
neutrophils [1] = experiment: neutrophil chemotaxis to leukotriene B4 (Neuroprobe chambers); assay type: cell-based; details: fluorescence at 530 nm, 1 hr; FIGURE 4
Procedure: The ability of CT-112 (SEQ. ID NO: 1) to inhibit chemotaxis of neutrophils in response to a variety of agents was assessed using Neuroprobe chemotaxis chambers. For these assays, neutrophils were resuspended in Hank's balanced salt solution with Ca^2+ and Mg^2+ to give a 5 x 10^6 cells/ml suspension after the cells were labeled with 1',7'-bis(2-carboxyethyl)-5-(6)-carboxyfluorescein. The neutrophils were exposed to CT-112 (SEQ. ID NO: 1) for approximately 15 min prior to addition to the chemotaxis chambers. CT-112 (SEQ. ID NO: 1) was present in both the top and bottom of the chambers, and the chemoattractant, either f-Met-Leu-Phe, leukotriene B4 or interleukin-8, was added to the bottom of chamber. Cells which had migrated through the membrane were determined by fluorescence at 530 nm at 1 hr after initiation of the assay.

neutrophils [2] = experiment: neutrophil viability, trypan blue exclusion; assay type: cell-based; details: FIGURE 3
Description: In addition, CT-112 (SEQ. ID NO: 1) was not cytotoxic to neutrophils, as determined by viability testing using trypan blue exclusion (FIGURE 3).

acute toxicity in rats = assay type: in vivo; details: rats, 100, 500 or 1,000 mg/kg
Procedure: Rats were dosed with CT-112 (SEQ. ID NO: 1) at 100, 500 or 1,000 mg/kg. […] All rats returned to normal appearance the day after treatment.

[3] = test system: Arachidonic Acid Induced Myeloperoxidase Activity in Mouse Ear; experiment: myeloperoxidase activity in AA-treated mouse ear tissue (marker for PMNs); assay type: in vivo, mice; details: minipump
Procedure: Myeloperoxidase activity in ear tissue was measured as a marker for the presence or absence of polymorphonuclear leukocytes (PMNs) (Barone et al., 1991, J. Neurosci. Res. 29:336-345). After measurement of ear thickness, ears were dissected from the mice and homogenized in 50mM Tris-HCL, pH 7.4 at 4°C to give a 10% (w/v) homogenate. Aliquots of the homogenate were used to determine the amount of myeloperoxidase activity present in the tissue using o-dianisidine (Sigma Chem Co., St. Louis MO) and hydrogen peroxide as substrates and monitoring chromophore generation at 460 nm (Barone et al., 1991, J. Neurosci. Res. 29:336-345).

[4] = test system: mouse bone marrow polychromatic erythrocyte; experiment: mouse bone marrow polychromatic erythrocyte micronucleus assay; assay type: in vivo; details: 62.5, 125 and 250 mg/kg; after 24, 48 or 72 hr

## CC(C)[C@H](NC(=O)[C@H](CCC(N)=O)NC(=O)[C@H](CO)NC(=O)[C@@H](NC(=O)[C@@H](N)[C@@H](C)O)[C@@H](C)O)C(=O)N[C@@H](CCCNC(=N)N)C(=O)N1CCC[C@H]1C(=O)N[C@@H](CCCNC(=N)N)C(=O)O [CT-112, Thr-Thr-Ser-Gln-Val-Arg-Pro-Arg] (H-TTSQVRPR-OH)
Neutrophils [1]
  chemotactic migration of neutrophils to LTB4: effectively inhibited
Neutrophils [2]
  cytotoxicity to neutrophils, viability: not cytotoxic
Acute toxicity in rats
  lesions at necropsy: No lesions were visible
Acute toxicity in rats; control vs treated
  mean body weight or mean body weight gain: no statistical differences
Acute toxicity in rats; several rats at 500 and 1,000 mg/kg, day of treatment
  clinical effects: Transient clinical effects (hypoactivity, hypersensitiviy, staggered gait, cyanosis and absence of righting reflex)
[3]; 0.05 mg/animal/day
  Myeloperoxidase Activity: 19.6 ± 15.6 µmole of chromophore formed/min
[3]; 0.1 mg/animal/day
  Myeloperoxidase Activity: 17.0 ± 9.6 µmole of chromophore formed/min
[3]; 1.0 mg/animal/day
  Myeloperoxidase Activity: 14.7 ± 13.3 µmole of chromophore formed/min
[4]
  micronuclei: did not induce a significant increase
